Patent US20250346643A1, “TROPOMYOSIN KINASE RECEPTOR (TRK) LIGANDS AS THERAPEUTICS TO SUPPORT LIVER REGENERATION” (Vanderbilt University, priority 2024, published 2025)
One block for each molecule: values may come before it.

Tests used:
[1] = tested on: hepatocytic differentiated human ductal organoids; experiment: EdU incorporation in hepatocytic differentiated human ductal organoids (HDO); type: cell-based; details: co-incubation with taletrectinib 10 nM (FIG. 19C-D)
Protocol: (§1) Human ductal organoids. The normal human liver tissue was obtained through the Cooperative Human Tissue Network (CHTN) at Vanderbilt University Medical Center. The liver was cut into very small pieces in liver digestion medium (Gibco, Waltham, MA; 17703-034). The cell suspension was filtered through a 100-μm cell strainer. The flow through was then centrifuged for 2 min at 100 g, 4° C., and the cell pellet resuspended in ice-cold DMEM (Gibco, Waltham, MA; 11885-084, supplemented by 5% FBS) and centrifuged for 2 min at 300 g. The cell pellet was gently resuspended in Matrigel® (Corning, Corning, NY; 356231) and a […] dome plated in a 24-well plate. The plate was incubated for 10-15 min at 37° C. After solidifying, complete HepatiCult™ Organoid Initiation Medium (OIM) (STEMCELL Technologies, Vancouver, Canada; 100-0384) was added. For passaging, the Matrigel dome was dissociated using TrypLE (Thermo Fisher Scientific, Waltham, MA; 12604013) and incubated at 37° C. for 5 mins. Organoids were washed by resuspending in advanced DMEM/F12 and consecutive resuspension of the organoid pellet. Organoids were resuspended at a 1:10 dilution in Matrigel® and cultured in complete HepatiCult™ Organoid Growth Medium (OGM) (STEMCELL Technologies, Vancouver, Canada; 100-0385) for organoid expansion. For hepatocytic differentiation of hepatic ductal organoids, culture medium was changed to complete HepatiCult™ Organoid Differentiation Medium (ODM) (STEMCELL Technologies, 100-0383) 4 days after passaging. Vehicle, NTF3, BDNF, HGF (20 ng/ml final concentration) or Taletrectinib (Fisher Scientific, Waltham, MA; 502030245, final concentration 10 nM) or torin2 (Fisher Scientific, Waltham, MA; s2817, final concentration 25 nM) were diluted in William's E (without L-glutamine) and added to organoids.
EdU incorporation and imaging in HDO and mpPHH. A chamber slide was pre-chilled on ice and coated with Matrigel®. Chamber slide was then incubated for 3 min at 37° C. to solidify and organoids plated in 0.02% Matrigel®/complete media into coated chamber slides. Organoids were grown in complete organoid growth media (OGM) for approximately 4 days followed by incubation in organoid differentiation media (ODM) for another 4 days. Organoids were changed to William's E medium 1 day prior to experiment. Vehicle or NTF3, BDNF, HGF (20 ng/ml final concentration each) or Taletrectinib (Fisher Scientific, Waltham, MA; 502030245, final concentration 10 nM) were diluted in William's E (without L-glutamine) and added to organoids. CLICK-iT™ EdU (EdU final concentration […] incubated together with the vehicle, NTF3, BDNF or HGF). After 6 hours, organoids were fixed with 4% paraformaldehyde and permeabilized with 0.5% Triton-X 100. Further processing was performed according to CLICK-ITT EdU manufacturer's instructions. mpPHHs were seeded on collagen coated chamber slides and grown in complete hepatocyte medium (Lonza, Basel, Switzerland). Prior to EdU incorporation assays, mpPHHs were cultured in William's E medium. Vehicle or NTF3, BDNF, HGF (20 ng/ml final concentration each) or Taletrectinib (Fisher Scientific, Waltham, MA; 502030245, final concentration 10 nM) were diluted in William's E (without L-glutamine) and added to mpPHHs. Organoids were imaged in PBS in chamber slides, mpHHs were mounted with fluoromount. Five to fifteen images of random high-power fields were obtained per experiment per treatment and EdU+/Hoechst 33342+ nuclei versus all Hoechst 33342+ nuclei quantified.

mTORC1 = experiment: Immunoblotting of HDOs for P-S6RP and P-P70S6K (mTORC1 activation); type: cell-based, human
Protocol: as §1
Immunoblotting. HDOs and mpPHH were homogenized in RIPA buffer containing proteinase inhibitors (Roche, Basel, Switzerland; cOmplete™ Mini protease inhibitor, 2 tab/10 ml buffer) and 1×HALT phosphatase inhibitors (Thermo Fisher Scientific, Waltham, MA; catalog no. 78428). Lysates were sonicated and then centrifuged for 10 min at 18,800 g. Protein concentration of supernatants was determined by Direct Detect Spectrophotometer (MilliporeSigma, Burlington, MA). HDOs were treated with growth factors as described above. Lyophilized NTF3 was solubilized with sterile-filtered PBS supplemented with 0.1% BSA, aliquoted, and stored at −80° C. until use. […] HDOs and mpPHH were collected on ice in PBS and centrifuged for 10 s, and the cell pellet was homogenized in RIPA buffer containing inhibitors (Roche, Basel, Switzerland; cOmplete™ Mini protease inhibitor, 1×HALT phosphatase inhibitors, Thermo Fisher Scientific, Waltham, MA; catalog no. 78428). Cell lysates were sonicated and centrifuged for 10 min at 18,800 g. The protein concentration of supernatants was determined by a Direct Detect® spectrophotometer (MilliporeSigma, Burlington, MA). For immunoblot analysis, 10 to 50 μg of protein diluted in […] sample buffer (Invitrogen, Waltham, MA) were analyzed per SDS-polyacrylamide gel electrophoresis (NuPAGE™, Invitrogen, Waltham, MA) using Mops buffer or MES buffer (Invitrogen, Waltham, MA). […] Semi-quantitative band densitometry was performed using ImageJ software (version 1.53).

[2] = tested on: primary mouse hepatocytes; experiment: Cell proliferation assay (CellTiter-Glo) in primary mouse hepatocytes; type: cell-based
Protocol: Primary hepatocyte isolation. Pdgfrb-GFP-negative or H-2Kd mice older than 4 months were anesthetized and cannulated via the portal vein. Livers were perfused with about 25 ml of pre-warmed Liver Perfusion Medium (Gibco, Waltham, MA; 17707-038) followed by about 50 ml Liver Digestion Medium (Gibco, Waltham, MA; 17703-034). Liver capsule was gently teased apart with tweezers and hepatocytes released. Cells were taken up in Hepatocyte Wash Buffer (Gibco, Waltham, MA; 17704-024) and filtered through 100 μm mesh. Cells were then centrifuged for 2 min at 100 g, 4° C. and cell pellet resuspended in ice cold 10 ml DMEM (Gibco, Waltham, MA; 11885-084)/5% FBS. 10 ml of ice cold 100% Percoll®/PBS (GE HealthCare, Chicago, IL; GE17-0891-01) was added for gradient purification and cells centrifuged for 10 min at 200 g, 4° C. Cell pellet was resuspended with 20 ml DMEM/5% FBS and centrifuged for 2 min at 100 g, 4° C. 1-2×10^3 hepatocytes were plated on collagen-coated 96-well plates in DMEM/5% FBS/Pen/Strep. Rat tail collagen I (Gibco, Waltham, MA; A1048301) was used for coating. Cell culture media was changed 3 hours after plating with either serum-free William's E media (Gibco, Waltham, MA) containing Pen/Strep (Gibco, Waltham, MA) or DMEM/5% FBS/Pen/Strep. NTF3 (STEMCELL technologies, Vancouver, Canada) was added 1 day after plating at a final concentration of 20 ng/ml and primary hepatocytes cultured for 3 days with NTF3 until analysis.
Cell proliferation assays. Primary mouse hepatocytes, HepG2 or AML 12 cells were grown in opaque-walled 96-well plates. NTF3 (final concentration 20 ng/ml) (STEMCELL Technologies, Vancouver, Canada; cat. 78074) and/or Loxo-195 (final concentration 5 nM) (Selleckchem, Houston, TX; S8636) were added into complete growth media without L-glutamine. Primary mouse hepatocytes were also grown in serum-free William's E media without supplements. Cells were analyzed by CellTiter-Glo® (Promega G7570, Madison, WI) which detects the number of viable cells on day 0 to day 5 by on detection systems GloMax® (Promega) or Bioteck Synergy H1 (Agilent, Santa Clara, CA). Mouse recombinant HGF (Abcam, Cambridge, UK; ab281797) was added to cell culture media at a final concentration 5 ng/ml. TRKB inhibitor ANA-12 (Selleckchem, Houston, TX; S7745) was diluted in DMSO (10 mM stock solution) and added to cell culture media at a final concentration of 10 nM.
Primary mouse hepatocyte isolation. Mice were anesthetized and cannulated via the portal vein. Livers were perfused with ˜25 ml of prewarmed liver perfusion medium (Gibco, Waltham, MA; 17707-038) followed by ˜50 ml of liver digestion medium (Gibco, Waltham, MA; 17703-034). The liver capsule was gently teased apart with tweezers, and hepatocytes were released. Cells were taken up in Hepatocyte Wash Buffer (Gibco, Waltham, MA; 17704-024) and filtered through a 100-μm mesh. Cells were then centrifuged for 2 min at 100 g, 4° C., and the cell pellet was resuspended in 10 ml of ice-cold DMEM (Gibco, Waltham, MA; 11885-084)/5% FBS. […] of ice-cold 100% Percoll®/PBS (GE HealthCare, Chicago, IL; GE17-0891-01) were added for gradient purification, and cells were centrifuged for 10 min at 200 g, 4° C. The cell pellet was resuspended with 20 ml of DMEM/5% FBS and centrifuged for 2 min at 100 g, 4° C. A total of 1×10^3 to 2×10^3 hepatocytes were plated on collagen-coated 96-well plates in DMEM/5% FBS/Pen/Strep. Rat tail collagen I (Gibco, Waltham, MA; A1048301) was used for coating. Cell culture media were changed 3 hours after plating with either serum-free William's E media (Gibco, Waltham, MA) containing Pen/Strep (Gibco, Waltham, MA) or DMEM/5% FBS/Pen/Strep. […]

Molecule: C[C@@H](N)COc1ccc(-c2cnc3ccc(N[C@H](C)c4cccc(F)c4)nn23)cc1 [taletrectinib, reference compound]
effect on NTF3-induced increase of EdU+ cells [1]: decreased

Molecule: NC(=O)CC[C@H](N)C(=O)O [glutamine]
phosphorylated S6rp (Ser240/244) (mTORC1; HDOs cultured in glutamine free media, coincubation (FIG. 18G), Torin2 25 nM): decreased phosphorylated S6rp

Molecule: CC(=O)NCCc1c[nH]c2ccc(O)cc12 [NAS, N-Acetyl-5-hydroxytryptamine, reference compound]
cell proliferation, comparison of NTF3, HGF, BDNF and NAS ([2]; BDNF and HGF 20 ng/ml, NAS 500 nM (FIG. 16E)): induce proliferation to a similar extent

phosphorylation of P-p70S6 kinase and P-S6 ribosomal protein (S6RP) (mTORC1; HDO, serum free and glutamine free William's E medium (FIG. 20A-C)): significantly increased phosphorylation
Molecule: insulin: a known activator of mTORC1

Molecule: O=C(Nc1ccccc1C(=O)NC1CCCCNC1=O)c1cc2ccccc2s1 (stereo not drawn) [ANA-12, reference compound]
inhibition of NTF3-induced cell proliferation ([2]; ANA-12 10 nM, NTF3 20 ng/ml, serum-free medium (FIG. 12D)): significantly inhibited | effect on BDNF-induced proliferation ([2]; co-incubation with ANA-12 10 nM (FIG. 16C)): inhibited
